The text below walks through data of patent publication US8475850B2, “Methods and compositions for heavy metal detoxification” (priority 2007, dated 2013).

For one experiment, the system named is GSTA1 and NQO1. To be noted: for phase II gene expression increased over DMSO control: text summary of Table 7.
Another experiment has as its system NQO1. As to the kind of experiment: NADPH quinone oxido reductase (NQO1) activity assay in RL-34 cell lysate after treatment. In kind it is cell-based, rat. As to conditions: RL-34 cell line.
The next experiment relates to GST. Description: GST activity assay in RL-34 cell lysate after treatment. In kind it is cell-based, rat. As to conditions: RL-34 cell line.
Another experiment has as its system HMOX1. As to conditions: for HMOX1 gene expression increased over DMSO control: text summary of Table 7.
Experiment [1] concerns metallothionein (hMT1&2 and hMT1&2alt). To be noted: for MT gene expression increased over DMSO control: text summary of Table 7.
The subject of experiment [2] is heme oxygenase (HO-1) promoter. As to the kind of experiment: heme oxygenase (HO-1) luciferase reporter in the HepG2 cell line. As to conditions: thirty percent induction over DMSO control is considered as active.
A further experiment deals with Nrf-2. As to the kind of experiment: Western blot of Nrf-2 in the nuclear fraction of HepG2 cells. The format is cell-based, human. As to conditions: 4 hours, FIGS. 3 and 4. The method, then:
The HepG2 cell line was cultured as above and test compounds were added for four hours, after which the cells were lysed and the nuclear fraction was isolated (Dignam, J. D., R. M. Lebovitz, and R. G. Roeder, Nucleic Acids Res, 11(5): 1475-89, 1983). Total protein concentration was determined using the Bicinchoninic Acid Kit (Sigma). […] (60 μg total protein) were electrophoresed and detection of Nrf-2 was performed using primary antibody incubation overnight at 4° C. (Santa Cruz Biotechnology, Inc, Santa Cruz, Calif.). Secondary antibody linked to horseradish peroxidase was incubated for one h (GE Healthcare, Piscataway, N.J.), after which proteins were visualized using the enhanced chemiluminescence (ECL) system. Densitometry was performed using Kodak Molecular Imaging Software v.4.0 (Eastman Kodak Company, Rochester, N.Y.) measuring the net intensity of the band.

Where two headings read alike, the source gives them in different places.

Consider `C=C1CC[C@@H]2[C@](C)(CO)[C@H](O)CC[C@@]2(C)[C@@H]1C/C=C1/C(=O)OC[C@H]1O` [Andrographis, 3-(2-(Decahydro-6-hydroxy-5-(hydroxymethyl)-5,8a-dimethyl-2-methylenenaphthyl)ethylidene)dihydro-4-hydroxyfuran-2(3H)-one], for which the “phase II gene expression increased over DMSO control” value in the experiment with GSTA1 and NQO1 (HepG2 cells) was ≥ 20%. In the experiment with NQO1 (25 μg/ml), the “NQO1 enzymatic activity induced over DMSO control” value is ≥ 20%. Also, in the experiment with GST (25 μg/ml), the “GST activity induced over DMSO control” value was ≥ 20%. Besides, the “HMOX1 gene expression increased over DMSO control” value (“HMOX1 gene expression increased” below) with HMOX1 (HepG2 cells) is recorded as ≥ 20%.
Consider `COc1ccc2cc3[n+](cc2c1OC)CCc1cc2c(cc1-3)OCO2` [Berberine], for which, in the experiment on NQO1 (20 μg/ml), the “NQO1 enzymatic activity induced over DMSO control” value was ≥ 20%.
Take `O=c1c(-c2ccc(O)cc2)coc2cc(O)cc(O)c12` [Bonistein]: the “NQO1 enzymatic activity induced over DMSO control” value in the experiment with NQO1 (20 μg/ml) is listed as ≥ 20%.
For the compound `[Cl][Cd][Cl]` [CdCl2], in the experiment on GSTA1 and NQO1 (HepG2 cells, 8 hours, 40 uM, average of GSTA1 and NQO1), the “Phase II (ave) Ratio to DMSO” value is 0.94. Also, the “phase II gene induction (in words)” value in the experiment with GSTA1 and NQO1 (HepG2 cells, controls) is “unable to increase”. In addition, the “MT gene induction (in words)” value in experiment [1] (HepG2 cells, controls) is “induce”. Besides, in the experiment with HMOX1 (HepG2 cells, controls), the “HMOX1 gene induction (in words)” value is “induce”.
`COc1cc(C=CC(=O)CC(=O)C=Cc2ccc(O)c(OC)c2)ccc1O` [Curcumin, 1,7-Bis(4-hydroxy-3-methoxyphenyl)hepta-1,6-diene-3,5-dione]: the “phase II gene expression increased over DMSO control” value in the experiment with GSTA1 and NQO1 (HepG2 cells) was ≥ 20%. Besides, the “NQO1 enzymatic activity induced over DMSO control” value with NQO1 (5 μg/ml) is listed as ≥ 20%. Moreover, the “expression of heme oxygenase promoter activity (in words)” value (shortened to “expression … (in words)”) in experiment [2] is given as “induced”. In the experiment with HMOX1 (HepG2 cells), the “HMOX1 gene expression increased” value is listed as ≥ 20%.
`c1ccc2c(Cc3c[nH]c4ccccc34)c[nH]c2c1` [DIM]: in the experiment on NQO1 (25 μg/ml), the “NQO1 enzymatic activity induced over DMSO control” value is ≥ 20%.
The same measure, in the same setting: under `OCc1c[nH]c2ccccc12` [I3C] stands ≥ 20%.
Turning to `CC1(C)CC[C@]2(C(=O)O)CC[C@]3(C)C(=CC[C@@H]4[C@@]5(C)CC[C@H](O)C(C)(C)[C@@H]5CC[C@]43C)[C@@H]2C1` [Oleanolic acid], in experiment [1] (HepG2 cells), the “MT gene expression increased over DMSO control” value was ≥ 20%. The “NQO1 enzymatic activity induced over DMSO control” value with NQO1 (25 μg/ml) is recorded as ≥ 20%. Moreover, the “expression … (in words)” value in experiment [2] is recorded as “induced”.
For the compound `C=C1C(=O)O[C@H]2[C@H]1CC/C(C)=C/CC[C@@]1(C)O[C@@H]21` [Parthenolide], the “NQO1 enzymatic activity induced over DMSO control” value with NQO1 (20 μg/ml) is ≥ 20%.
For `O=c1c(O)c(-c2ccc(O)c(O)c2)oc2cc(O)cc(O)c12` [Quercitin], the “NQO1 enzymatic activity induced over DMSO control” value in the experiment with NQO1 (20 μg/ml) is on record as ≥ 20%.
On the same count and under the same terms, next, `Oc1ccc(C=Cc2cc(O)cc(O)c2)cc1` [Resveratrol]: ≥ 20%.
With `C[S+]([O-])CCCCN=C=S` (stereo not shown) [Sulforaphane], in the experiment with GSTA1 and NQO1, the “Phase II (ave) Ratio to DMSO” value is listed as 1.64 and the “phase II gene induction (in words)” value was “increased”. In experiment [1], the “MT 1.2 (ave) Ratio to DMSO” value is 0.87 and the “MT gene induction (in words)” value is “but not MT”. Further, the “NQO1 enzymatic activity induced over DMSO control” value with NQO1 (3 μg/ml) is given as ≥ 20%. The “expression … (in words)” value in experiment [2] is “induced”. In addition, in the experiment on GST (3 μg/ml), the “GST activity induced over DMSO control” value is ≥ 20%. The “Nrf-2 nuclear translocation (in words)” value with Nrf-2 is on record as “dramatic increase”. In addition, the “HMOX1 gene induction (in words)” value in the experiment with HMOX1 is recorded as “increased”.
On to `O=c1oc2c(O)c3oc(=O)c4c5c(oc(=O)c6cc(O)c(O)c(O)c65)c(O)c5oc(=O)c(c2c2c(O)c(O)c(O)cc12)c3c54` [Terminalin], for which the “expression … (in words)” value in experiment [2] is “induced”.
Turning to `COc1cc(O)c(CC=C(C)C)c(O)c1C(=O)/C=C/c1ccc(O)cc1` [Xanthohumol], in experiment [1] (HepG2 cells), the “MT gene expression increased over DMSO control” value is ≥ 20%. The “NQO1 enzymatic activity induced over DMSO control” value in the experiment on NQO1 (1 μg/ml) was ≥ 20%. For the same compound, the “expression … (in words)” value in experiment [2] is on record as “induced”. For the same compound, the “GST activity induced over DMSO control” value in the experiment with GST (1 μg/ml) is listed as ≥ 20%. In the experiment on HMOX1 (HepG2 cells), the “HMOX1 gene expression increased” value is given as ≥ 20%.
Consider `[Cl-].[Cl-].[Zn+2]` [ZnCl2], for which the “Phase II (ave) Ratio to DMSO” value in the experiment on GSTA1 and NQO1 (HepG2 cells, 8 hours, 10 μg/ml, average of GSTA1 and NQO1) is on record as 0.94. Moreover, in experiment [2], the “expression … (in words)” value is reported as “induced”.
As for `O=C(/C=C/c1ccc(O)c(O)c1)O[C@@H]1C[C@](O)(C(=O)O)C[C@@H](O)[C@H]1O` [chlorogenic acid], the “NQO1 enzymatic activity induced over DMSO control” value in the experiment with NQO1 (25 μg/ml) is given as ≥ 20%.
